Test results as given in ChEMBL document CHEMBL1201862, “PubChem BioAssay data set” (2004).
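These data come from cells grown in 96-well plates and exposed to compound for 48 hours at five concentrations. GI50 = concentration required for 50% inhibition of growth.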 The source made the active and inactive calls. Rule as the data show it: active = GI50 up to about 1.1 µM and inactive = higher.

Experiments:
Experiment in all cases: DTP human tumour cell line panel, 48 h
ACHN = system: ACHN
BT-549 = system: BT-549
COLO 205 = system: COLO 205
HCT-15 = system: HCT-15
HOP-62 = system: HOP-62
IGROV-1 = system: IGROV-1
LOX IMVI = system: LOX IMVI
MDA-MB-231 = system: MDA-MB-231
MOLT-4 = system: MOLT-4
NCI-H460 = system: NCI-H460
NCI-H522 = system: NCI-H522
NCI/ADR-RES = system: NCI/ADR-RES
OVCAR-3 = system: OVCAR-3
OVCAR-4 = system: OVCAR-4
SF-295 = system: SF-295
SK-MEL-28 = system: SK-MEL-28
SK-MEL-2 = system: SK-MEL-2
SK-OV-3 = system: SK-OV-3
SNB-19 = system: SNB-19

Compound | GI50 (ACHN) | GI50 (BT-549) | GI50 (COLO 205) | GI50 (HCT-15) | GI50 (HOP-62) | GI50 (IGROV-1) | GI50 (LOX IMVI) | GI50 (MDA-MB-231) | GI50 (MOLT-4) | GI50 (NCI-H460) | GI50 (NCI-H522) | GI50 (NCI/ADR-RES) | GI50 (OVCAR-3) | GI50 (OVCAR-4) | GI50 (SF-295) | GI50 (SK-MEL-28) | GI50 (SK-MEL-2) | GI50 (SK-OV-3) | GI50 (SNB-19)
CN(C)Cc1ccc(C(C)(C)C)cc1-c1cc(C(C)(C)C)ccc1CN(C)C | > 100 µM (inactive) | > 100 µM (inactive) | 19.4 µM (inactive) | 72.3 µM | > 100 µM (inactive) | > 100 µM (inactive) | 83.6 µM (inactive) | 70.5 µM (inactive) | 40.2 µM (inactive) | 51.1 µM (inactive) | 50.5 µM (inactive) | > 100 µM (inactive) | 21.8 µM (inactive) | 53.7 µM (inactive) | 33.5 µM (inactive) | 33.3 µM (inactive) | 76.9 µM (inactive) | > 100 µM (inactive) | > 100 µM (inactive)
COc1cc2nc(-c3cccs3)oc(=O)c2cc1OC | > 100 µM (inactive) | 42 µM (inactive) | > 100 µM (inactive) | > 100 µM | 17.6 µM (inactive) | > 100 µM (inactive) | > 100 µM (inactive) | 74.8 µM (inactive) | > 100 µM (inactive) | > 100 µM (inactive) | > 100 µM (inactive) | 51.2 µM (inactive) | > 100 µM (inactive) | > 100 µM (inactive) | > 100 µM (inactive) | > 100 µM (inactive) | > 100 µM (inactive) | > 100 µM (inactive) | 47.3 µM (inactive)
CCc1nc2c(c(N(C)C)c1C(=O)OC)CCc1ccccc1-2 | 23 µM (inactive) | 35 µM (inactive) | 18.7 µM (inactive) | 32.5 µM | 24.8 µM (inactive) | 40.4 µM (inactive) | 27.2 µM (inactive) | 23.5 µM (inactive) | 4.14 µM (inactive) | 30.6 µM (inactive) | 17.9 µM (inactive) | 29.6 µM (inactive) | 13.4 µM (inactive) | 44.8 µM (inactive) | 17.6 µM (inactive) | 38.5 µM (inactive) | 17.8 µM (inactive) | 13.8 µM (inactive) | 38.4 µM (inactive)
C/C(=C\CO)CC/C=C(\C)CNc1ccc([N+](=O)[O-])cc1 | 80.4 µM (inactive) | 10.1 µM (inactive) | 36.6 µM (inactive) | 30.1 µM | > 100 µM (inactive) | 28.8 µM (inactive) | 22.3 µM (inactive) | 26.2 µM (inactive) | 1.93 µM (inactive) | > 100 µM (inactive) | 18 µM (inactive) | 22 µM (inactive) | 17.4 µM (inactive) | 2.98 µM (inactive) | 32.5 µM (inactive) | 28.4 µM (inactive) | 20.4 µM (inactive) | > 100 µM (inactive) | 40.3 µM (inactive)
Nc1nc(Cl)cc(NCC2(CCO)CCC2)n1 | > 100 µM (inactive) | 32.7 µM (inactive) | – | > 100 µM | > 100 µM (inactive) | > 100 µM (inactive) | > 100 µM (inactive) | > 100 µM (inactive) | > 100 µM (inactive) | > 100 µM (inactive) | > 100 µM (inactive) | > 100 µM (inactive) | > 100 µM (inactive) | > 100 µM (inactive) | > 10 µM (inactive) | > 100 µM (inactive) | > 100 µM (inactive) | > 100 µM (inactive) | > 100 µM (inactive)
COc1ccc2c3c1O[C@H]1[C@@H](O)CC[C@@]4(O)[C@@H](C2)N(C)CC[C@]314 | > 100 µM (inactive) | > 100 µM (inactive) | > 100 µM (inactive) | > 100 µM | > 100 µM (inactive) | > 100 µM (inactive) | > 100 µM (inactive) | > 100 µM (inactive) | > 100 µM (inactive) | – | > 100 µM (inactive) | > 100 µM (inactive) | > 100 µM (inactive) | > 100 µM (inactive) | > 100 µM (inactive) | > 100 µM (inactive) | > 100 µM (inactive) | > 100 µM (inactive) | > 100 µM (inactive)
Cc1ccc(C(=O)C2C=C(c3ccc(C)cc3)SC3C=CCC32)cc1 (stereo unspecified) | 20.5 µM (inactive) | 18.3 µM (inactive) | 22.1 µM (inactive) | 21.6 µM | 20.3 µM (inactive) | 19.6 µM (inactive) | 18.4 µM (inactive) | 25.1 µM (inactive) | 12.1 µM (inactive) | 16.9 µM (inactive) | 15.3 µM (inactive) | 18.5 µM (inactive) | 17 µM (inactive) | 30.5 µM (inactive) | 19.1 µM (inactive) | 17.4 µM (inactive) | 16.1 µM (inactive) | 25.2 µM (inactive) | 30 µM (inactive)
